# Reference: US20180256623A1, “COMPOSITIONS AND METHOD FOR REGULATING ADIPOSE TISSUE LIPOLYSIS, INSULIN-RESISTANCE, AND HYPERGLYCEMIA” (University of Virginia Patent Foundation, priority 2015, published 2018)
# Columns and labels:
# mice = assay: Rodent hemorrhage and trauma (surgery) model; format: in vivo
# Description: The acute changes in blood glucose that occur in a T1DM model were invesitaged. Streptozotocin (STZ)-treated mice were subjected to a hemorrhage protocol to mimic surgical induction of the neuroendocrine stress response in humans (FIG. 1). Adipose tissue lipolysis was controlled via the addition of the small molecule inhibitor Atglistatin. The extent of glycemic excursions and ketogenesis was followed.
# Separate rodent models of diabetes were employed to investigate the unique co-morbidities associated with T1DM. For the T1DM model, C57BL/6J mice were subjected to low dose injection of streptozotocin (50 mg/kg) at 6-8 weeks of age (see the website for the Diabetic Complications Consortium).
# The protocol for modeling surgery-induced stress has been adapted from several sources and is available to an art worker. Although few human patients undergo extensive hemorrhage during elective surgeries, this rodent protocol is a consistent and reproducible experimental model for surgical stress in humans. Briefly, on the day of the surgery 10-12 week old male mice were fasted for six hours prior to surgery and pre-treated with or without lmg/kg body weight of Atglistatin at four hours prior to surgery to prevent adipose tissue lipolysis. Mice were then anesthetized by continuous inhalation of isoflurane and subjected to a 2-cm ventral midline laparotomy. The abdomen will then be sutured, a catheter was placed in the right femoral artery and mice were hemorrhaged from the left femoral artery to a mean arterial pressure (MAP) of 35-40 mm Hg (T0′). Blood glucose and ketone levels were monitored during the surgery. The mice were followed until 30′ post-hemorrhage and were maintained continuously under anesthesia. At the termination of the experiment, blood was collected to measure serum catecholamines, insulin, cytokines, ketones and glycerol levels, among other possible metabolic parameters.
# Rodent hemorrhage and trauma model—To activate the adaptive stress response and emulate the acute hyperglycemia and insulin resistance that develops after surgery, trauma and hemorrhage mice as previously described will be used. Briefly, 10-12 week old male mice are fasted for 4-6 hours prior to surgery and 4 hours before surgery, Atglistatin (1 mg/kg) or vehicle will be injected intraperitoneally. Mice are anesthetized by continuous inhalation of 1.5% isoflurane and 98.5% 02 throughout all procedures. After the mice are shaved, surgery will begin with a 2-cm ventral midline laparotomy. The abdomen is then sutured and the wounds bathed with 1% lidocaine to reduce pain. A catheter is placed in the right femoral artery for monitoring mean arterial pressure (MAP). To replicate the blood loss during a surgery, mice are hemorrhaged from the left femoral artery to an MAP of 35-40 mmHg over a 10-minute period. Once the MAP reaches 35-40 mmHg, the […]. […] Control mice are subjected to trauma alone. Mice are subjected to anesthesia, laparotomy, and catheterization. […] Blood glucose levels are monitored during the surgery.
# hormone-sensitive lipase = molecular target: T1, hormone-sensitive lipase (Homo sapiens, UniProt Q05469); conditions: cited from earlier work
# T1 sequence (Q05469 1-1076): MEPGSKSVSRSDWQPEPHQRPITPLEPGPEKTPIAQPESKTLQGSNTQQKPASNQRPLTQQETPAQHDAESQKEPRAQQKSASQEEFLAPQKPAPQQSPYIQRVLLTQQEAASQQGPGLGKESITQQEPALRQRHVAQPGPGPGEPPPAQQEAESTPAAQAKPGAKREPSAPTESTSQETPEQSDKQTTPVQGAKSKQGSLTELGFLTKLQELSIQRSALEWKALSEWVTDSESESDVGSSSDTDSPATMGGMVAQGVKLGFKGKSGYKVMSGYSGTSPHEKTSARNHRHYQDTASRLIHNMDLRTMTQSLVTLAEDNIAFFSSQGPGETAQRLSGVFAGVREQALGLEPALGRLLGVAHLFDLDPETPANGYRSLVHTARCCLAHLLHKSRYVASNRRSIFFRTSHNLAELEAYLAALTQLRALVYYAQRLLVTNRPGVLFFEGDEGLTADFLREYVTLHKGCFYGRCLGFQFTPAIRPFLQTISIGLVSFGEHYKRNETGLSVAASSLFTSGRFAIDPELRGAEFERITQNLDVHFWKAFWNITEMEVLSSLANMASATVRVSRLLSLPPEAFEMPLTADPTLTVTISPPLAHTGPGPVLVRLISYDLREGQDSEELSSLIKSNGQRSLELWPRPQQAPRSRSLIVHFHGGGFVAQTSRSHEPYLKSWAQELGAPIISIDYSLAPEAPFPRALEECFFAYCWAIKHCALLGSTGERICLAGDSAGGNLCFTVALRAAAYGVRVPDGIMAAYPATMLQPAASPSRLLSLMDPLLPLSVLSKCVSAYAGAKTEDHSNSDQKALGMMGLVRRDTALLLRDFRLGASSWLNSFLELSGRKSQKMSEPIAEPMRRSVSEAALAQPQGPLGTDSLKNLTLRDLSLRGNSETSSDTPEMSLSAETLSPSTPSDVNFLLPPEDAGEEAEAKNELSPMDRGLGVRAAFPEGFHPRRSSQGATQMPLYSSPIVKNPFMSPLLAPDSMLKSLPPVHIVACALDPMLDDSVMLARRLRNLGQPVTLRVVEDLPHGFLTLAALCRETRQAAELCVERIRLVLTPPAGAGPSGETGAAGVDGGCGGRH
# lipoprotein lipase = molecular target: T2, lipoprotein lipase (Homo sapiens, UniProt P06858); conditions: cited from earlier work
# T2 sequence (P06858 28-475): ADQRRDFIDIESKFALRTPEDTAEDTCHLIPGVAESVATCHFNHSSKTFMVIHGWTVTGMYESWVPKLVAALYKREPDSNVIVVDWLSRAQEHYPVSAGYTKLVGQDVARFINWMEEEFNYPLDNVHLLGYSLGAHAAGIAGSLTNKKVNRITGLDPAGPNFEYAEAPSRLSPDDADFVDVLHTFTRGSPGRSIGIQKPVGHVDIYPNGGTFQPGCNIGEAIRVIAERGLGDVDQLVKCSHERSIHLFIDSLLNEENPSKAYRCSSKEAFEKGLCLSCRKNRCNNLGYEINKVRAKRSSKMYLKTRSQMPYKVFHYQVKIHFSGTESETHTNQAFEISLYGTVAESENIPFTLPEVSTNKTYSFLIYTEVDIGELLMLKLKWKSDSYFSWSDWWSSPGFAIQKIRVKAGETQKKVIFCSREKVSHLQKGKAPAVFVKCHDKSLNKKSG
# lipolysis by ATGL = conditions: in vivo; cited from earlier work
smiles,measurement,setting,value
"CN(C)C(=O)Nc1cccc(-c2ccc(N(C)C)cc2)c1 [Atglistatin, N′-[4′-(dimethylamino) [1,1′-biphenyl]-3-yl]-N,N-dimethyl-urea]",adipose tissue lipolysis as assessed by serum glycerol levels,"mice; control mice, pre-treated with lmg/kg body weight four hours prior to surgery, FIG. 2B",attenuating adipose tissue lipolysis
same,circulating glycerol (lipolysis),"mice; mice, Atglistatin 1 mg/kg intraperitoneally 4 hours before surgery",reduction in circulating glycerol
same,hemorrhage-induced hyperglycemia,"mice; mice, Atglistatin 1 mg/kg intraperitoneally 4 hours before surgery, FIG. 3A",effective in preventing hemorrhage-induced hyperglycemia
same,insulin resistance in adipose tissue and skeletal muscle,"mice; mice, Atglistatin 1 mg/kg intraperitoneally 4 hours before surgery, FIG. 3B",attenuation of insulin resistance in adipose tissue and skeletal muscle
same,stress-induced lipolysis,mice; pharmacological inhibition of ATGL,largely blocks stress-induced lipolysis
same,inhibition of hormone-sensitive lipase,hormone-sensitive lipase,does not inhibit
same,inhibition of lipoprotein lipase,lipoprotein lipase,does not inhibit
same,lipolysis by ATGL (fatty acid mobilization),lipolysis by ATGL,blocks lipolysis
